From PMC12308784, “Organometallic Half-Sandwich Complexes of 1,10-Phenanthroline Derivatives with Improved Solubility, Albumin-Binding, and Nanoformulation Potential Targeting Drug Resistance in Cancer” (Inorganic Chemistry, 2025)
Several values for one entry are separate records, joined by “and”; a condition that tells them apart may be missing. Identical values can stand only once.

Legend:
[1] = target: T1, HSA Sudlow’s site II (IIIA subdomain) (Homo sapiens, UniProt P02768); test: dansylglycine (DG) site marker displacement on HSA; format: binding; settings: HSA–DG 1:1; PBS’; t = 25 °C
T1 construct: purchased Sigma-Aldrich A8763
Method: (§1) To further explore the binding affinity and site specificity of the metal complexes, site marker displacement experiments were conducted using WF and DG, which bind to Sudlow’s site I (in IIA subdomain) and to Sudlow’s site II (in IIIA subdomain), respectively. The displacement of these fluorescence probes directly confirms the interactions of the metal complexes with the respective binding sites. The displacement constants of WF (KWF′) by the metal complexes (Figure c,d, Table ) were correlated with the Trp-214 quenching data.
(§2) Fluorescence measurements were carried out on a Fluoromax (Horiba Jobin Yvon) spectrofluorometer using a 1 cm × 1 cm quartz cuvette in order to assess the interactions of the complexes with HSA in PBS’ medium at 25 °C. The calculated quenching or displacement conditional constants for the HSA-complex species were obtained using the computer program HypSpec. Calculations always were based on data obtained from at least two independent measurements. Self-absorbance and inner filter effect had to be taken into account, and corrections were made as it was described in our former works. ,
(§3) Table S7. Conditions applied for steady -state spectrofluorometric measurements.
(§4) cHSA cMARKER ccomplex λEX λEM slit widths
(§5) (μM) (μM) (μM) (nm) (nm) EX/EM […]
(§6) S.; Deflon, V. M.; Ferreira, A. G.; Cominetti, M. R.; Batista, A. A. Cytotoxicity of Ru(II) Piano-
(§7) Stool Complexes with Chloroquine and Chelating Ligands against Breast and Lung Tumor Cells:
(§8) Interactions with DNA and BSA. J Inorg Biochem 2015, 153, 150–161.
(§9) Van Deun, R.; Van Hecke, K. Antitumor Activity of Organoruthenium Complexes with Chelate

[2] = target: T2, human serum albumin (HSA), Trp-214 in Sudlow’s site I (Homo sapiens, UniProt P02768); test: Trp-214 fluorescence quenching of HSA; format: binding; settings: PBS’; t = 25 °C; 24 h incubation; c HSA = 1.2 μM; RuCym values conditional at 24 h
T2 construct: purchased Sigma-Aldrich A8763
Excerpt: Fluorescence spectroscopy was utilized to elucidate the binding sites on HSA that are targeted by the metal complexes. This investigation concentrated on two key aspects: the quenching of HSA’s intrinsic fluorescence attributed to the sole tryptophan residue (Trp-214) and the displacement of site-specific fluorescent markers warfarin (WF) and dansylglycine (DG). Trp-214 is situated in Sudlow’s site I within the IIA subdomain, rendering it a valuable probe for evaluating interactions at this site. Fluorometric measurements, conducted over a 5 h time frame (see example for RhCp*BP in Figure S19), corroborated the results of UV–vis experiments, the quenching of fluorescence took several hours for the RhCp* complexes, while RuCym compounds had no remarkable effect of Trp-214 fluorescence. Quenching studies were conducted over a 24 h incubation period. This time frame is most probably not enough to reach equilibrium with RuCym complexes; however, this is considered as the upper limit that can be physiologically relevant, as longer incubation times are rendered irrelevant by metabolism and elimination. […] Quenching constants (KQ^′) were computed using HypSpec software. […] It should be noted that quenching constants calculated for the RuCym complexes represent only a temporary state at 24 h of incubation time.
7 Binding interactions of RhCp*BP with HSA analyzed via fluorescence quenching and marker displacement assays. (a) Trp214 fluorescence quenching by RhCp*BP. (b) Measured (dots) and fitted (dashed lines) quenching curves for RhCp*BP, RuCymBP, RhCp*DCP, and RuCymDCP. Fluorescence spectra of the (c) HSA–WF 1:1 and (e) HSA–DG 1:1 systems by the addition of RhCp*BP (dashed lines indicate the free site marker) and the corresponding fluorescence intensity curves at the indicated wavelengths (d,f). The dotted line in figure (d) denotes the fitted intensities. {c HSA = 1.2 μM; c marker = 0 or 1.2 μM PBS’; t = 25 °C}.
as §2, with “works. , […]” for “works. ,”
Table S7. Conditions applied for steady -state spectrofluorometric measurements. cHSA cMARKER ccomplex λEX λEM slit widths […]

[3] = pKa of the coordinated aqua ligand by UV–vis pH titration; format: physicochemical; settings: [M(arene/arenyl)(ligand)(H2O)]2+; chloride-free; I = 0.2 M KNO3; t = 25 °C
Method: The K a values of the complexes with BP and DCP ligands for the [M(η^6-arene/η^5-arenyl)(ligand)(H2O)]^2+ ⇌ [M(η^6-arene/η^5-arenyl)(ligand)(OH)]^+ + H^+ process also provide valuable insights into their behavior in aqueous solutions. In order to determine the K a values, UV–vis spectra were recorded at different pH values under chloride-free conditions, as shown for the complex RuCymDCP in Figure , and the determined pK a values are presented in Table . […] However, at higher pH values, spectral shifts indicate the onset of aqua ligand deprotonation. For RuCym complexes, the calculated pK a values (Table ) indicate moderate acidity and a higher tendency for deprotonation at physiological pH compared with the RhCp* complexes. […] This lower value is most likely due to the stronger tendency of IrCp*, as well as RuCym, to undergo hydrolysis compared to RhCp*.
An Agilent Cary 8454 diode array spectrophotometer was utilized to obtain UV–vis spectra in the wavelength range 190–1100 nm; the path length was 1 cm. The concentrations of the complexes were between 20 and 100 μM. The actual pH of the samples were measured with an Orion 710A pH-meter equipped with a Metrohm combined electrode (type 6.0234.100) and the pH titrations were performed by a KOH solution using a Metrohm 665 Dosimat buret at 25.0 °C. […] The computer program HypSpec was used to calculate the equilibrium constants.

[4] = target: T3, HSA Sudlow’s site I (IIA subdomain) (Homo sapiens, UniProt P02768); test: warfarin (WF) site marker displacement on HSA; format: binding; settings: PBS’; t = 25 °C; HSA–WF 1:1, 1.2 μM
T3 construct: purchased Sigma-Aldrich A8763
Method: as §1, §2, §3, §4, §5, §6, §7, §8, §9

T2 sequence (P02768 25-609): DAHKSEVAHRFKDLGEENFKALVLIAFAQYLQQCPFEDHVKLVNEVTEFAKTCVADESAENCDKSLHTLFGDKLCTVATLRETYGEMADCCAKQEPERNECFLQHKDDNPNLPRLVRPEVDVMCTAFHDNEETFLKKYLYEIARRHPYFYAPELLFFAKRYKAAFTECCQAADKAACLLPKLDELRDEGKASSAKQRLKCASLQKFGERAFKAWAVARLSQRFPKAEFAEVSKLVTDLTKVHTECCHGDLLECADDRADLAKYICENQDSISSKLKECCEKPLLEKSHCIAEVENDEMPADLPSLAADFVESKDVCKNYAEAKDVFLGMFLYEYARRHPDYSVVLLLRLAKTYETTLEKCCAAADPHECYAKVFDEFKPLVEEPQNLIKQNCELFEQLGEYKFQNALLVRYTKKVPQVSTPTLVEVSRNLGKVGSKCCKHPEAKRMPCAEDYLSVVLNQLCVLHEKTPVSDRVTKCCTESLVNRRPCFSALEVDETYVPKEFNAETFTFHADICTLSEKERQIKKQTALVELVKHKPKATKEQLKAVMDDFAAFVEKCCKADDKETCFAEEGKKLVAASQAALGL
T1 sequence (P02768 25-609): as above
T3 sequence (P02768 25-609): as above

Compound | DG displacement / interaction with Sudlow’s site II [1] | logK Q′ (quenching constant) [2] | pK a [ML(H2O)] [3] | logK WF′ (WF displacement constant) [4]
Cc1c(C)c(C)[c-](C)c1C.Clc1ccnc2c1ccc1c(Cl)ccnc12.[Cl-].[Cl-].[Rh+3] [RhCp*DCP, [Rh(III)(η^5-C5Me5)(4,7-dichloro-1,10-phenanthroline)Cl]Cl] | no significant interaction | 4.6 and 4.6 ± 0.1 | 8.33 ± 0.05 | 4.8 ± 0.1
Cc1ccc(C(C)C)cc1.[Cl-].[Cl-].[Ru+2].c1ccc(-c2ccnc3c2ccc2c(-c4ccccc4)ccnc23)cc1 [RuCymBP, [Ru(II)(η^6-p-cymene)(bathophenanthroline)Cl]Cl] | no significant interaction | 4.3 ± 0.1 | 7.57 ± 0.06 | 4.4 ± 0.1
Cc1ccc(C(C)C)cc1.Clc1ccnc2c1ccc1c(Cl)ccnc12.[Cl-].[Cl-].[Ru+2] [RuCymDCP, [Ru(II)(η^6-p-cymene)(4,7-dichloro-1,10-phenanthroline)Cl]Cl] | no significant interaction | ≤3.8 | 7.21 ± 0.06 | ≤4.3
[Rh(III)(η^5-C5Me5)(bathophenanthroline)Cl]Cl [RhCp*BP] | able to displace the DG | 5.5 and 5.5 ± 0.1 | 8.81 ± 0.06 | 5.6 ± 0.1
